Laboratory results published in PMC6222820, “Synthesis of New Triarylpyrazole Derivatives Possessing Terminal Sulfonamide Moiety and Their Inhibitory Effects on PGE2 and Nitric Oxide Productions in Lipopolysaccharide-Induced RAW 264.7 Macrophages” (Molecules : A Journal of Synthetic Chemistry and Natural …, 2018).
Entries after “also recorded” stand apart in the source; their conditions may differ.

Assays:
iNOS = molecular target: T1, iNOS (Mus musculus, UniProt P29477); experiment: iNOS enzyme activity in LPS-pretreated cells (Griess reaction); format: cell-based; conditions: 5, 10, or 20 μM for 12 h after LPS (1 µg/mL) 12 h
T1 construct: endogenous in cells; host or cells: RAW 264.7 macrophages, LPS-stimulated
Experimental: Figure 4 Effect of compounds 1b, 1d, 1g, 2a, and 2c on iNOS activity. Following pretreatment with lipopolysaccharide (LPS, 1 µg/mL) for 12 h and wash with phosphate buffer solution (PBS), cells were treated with 1g (5, 10, or 20 μM) for 12 h N^6-(1-Iminoethyl)-L-lysine. (L-NIL) (40 μM) was used as the positive control in the assay. Levels of NO in culture media were quantified using the Griess reaction assay. Data are presented as the means ± SD of three independent experiments. # p < 0.05 versus the control cells; *** p < 0.001 versus LPS-stimulated cells; * statistical significances were compared using ANOVA and Dunnett’s post hoc test.

[1] = MTT assay for cell viability / cytotoxicity; format: cell-based; conditions: mouse, RAW 264.7 macrophages, means ± SD of three independent experiments
Experimental: (§1) In addition to NO inhibition, the cytotoxic activity of compounds 1a–i, 2a–i, 3a–h, and 4a–h in RAW 264.7 macrophages were measured using the 3-(4,5-dimethylthiazol-2-yl)-2,5-diphenyltetrazolium bromide (MTT) assay to check whether the effects on the production of NO was caused by nonspecific cytotoxicity.
(§2) Cell culture and sample treatment were performed as reported in the literature. The 3-(4,5-dimethylthiazol-2-yl)-2,5-diphenyltetrazolium bromide (MTT) assay for cell viability followed the procedure previously described in the literature. Nitrite determination was carried as described in the literature, and the PGE2 assay was carried as previously described.

[2] = system: LPS-induced RAW 264.7 macrophages; experiment: Nitric oxide (NO) production inhibition in LPS-induced RAW 264.7 macrophages (nitrite determination); format: cell-based; conditions: for inhibition at 1 µM: RAW264.7, 1 µM; for inhibition at 1 µM / inhibition at 5 µM / inhibition at 10 µM / Nitric Oxide % Inhibition: LPS-induced RAW 264.7 macrophages; for inhibition at 5 µM: RAW264.7, 5 µM; for inhibition at 10 µM: RAW264.7, 10 µM; for IC50: means ± SD of three independent experiments, read-out: NO (IC50)
Experimental: The ability of a certain molecule to inhibit the production of inflammatory mediator(s) is one of successful approach to treatment both chronic and acute inflammation.
as §2

[3] = system: inducible nitric oxide synthase (iNOS); experiment: LPS-induced iNOS protein expression (SDS-PAGE / immunoblot of cellular lysates); format: cell-based; conditions: 20 µM; pretreatment 1 h, then LPS (1 μg/mL) 24 h; β-actin reference
Experimental: As a result of their activity against both NO and PGE2 production and low cellular toxicity, compounds 1b, 1d, 1g, 2a, and 2c were tested for their inhibitory effect on the expression of both iNOS and COX-2. The cellular lysates were prepared from the with- and without-pretreatment tested compounds (5, 10, 20 μM) for one hour and then with LPS (1 μg/mL) for 24 h, using β-actin as a reference. […] Compound 1g might express its inhibitory effect on NO production mainly through inhibition of iNOS protein expression and partially through inhibition of iNOS enzyme activity.
Figure 3 Inhibitory activity of compounds 1b, 1d, 1g, 2a, and 2c on inducible nitric oxide synthase (iNOS) and Cyclooxygenase 2 (COX-2) Cellular lysates were prepared from the with/without pretreatment tested compound (5, 10, and 20 μM) for one hour and then with LPS (1 μg/mL) for 24 h. Total cellular proteins were resolved by sodium dodecyl sulphate-polyacrylamide gel electrophoresis (SDS-PAGE), transferred to Polyvinylidene fluoride (PVDF) membranes, and detected with specific iNOS and COX-2 antibodies. β-actin was used as an internal control.

[4] = system: LPS-induced RAW 264.7 macrophages; experiment: PGE2 production inhibition in LPS-induced RAW 264.7 macrophages; format: cell-based; conditions: means ± SD of three independent experiments; for inhibition at 1 µM: RAW264.7, 1 μM; for inhibition at 5 µM: RAW264.7, 5 μM; for inhibition at 10 µM: RAW264.7, 10 μM
Experimental: Compounds 1b, 1g, 2a, and 2c were able to inhibit more than 50% of the prostaglandin production at a dose 5 μM. The five compounds were able to reduce PGE2 production by over 75% at a dose of 10 μM.
as §2

RAW 264.7 macrophages = experiment: MTT assay for cell viability / cytotoxicity; format: cell-based; conditions: means ± SD of three independent experiments
Experimental: as §1, §2

[5] = Mus musculus, RAW264.7, nitric oxide production
[6] = Mus musculus, RAW264.7, LPS-induced RAW 264.7 macrophages

COc1cccc(-c2nn(-c3ccccc3)cc2-c2ccnc(NCCNS(=O)(=O)c3ccc(Br)cc3)c2)c1 [Compound 1b, 4-Bromo-N-(2-((4-(3-(3-methoxyphenyl)-1-phenyl-1H-pyrazol-4-yl)pyridin-2-yl)amino)ethyl)benzenesulfonamide]
Inhibition of iNOS enzyme activity (iNOS): slightly inhibited iNOS enzyme activity in a dose-dependent manner | IC50 [1]: 254.2 ± 2.54 µM | inhibition at 1 µM ([2]; Mus musculus): 12.05 ± 0.11% | inhibition at 5 µM ([2]; Mus musculus): 24.2 ± 0.98% | inhibition at 10 µM ([2]; Mus musculus): 68.7 ± 2.47% | IC50 [2, 5]: 7.9 ± 0.41 µM | Inhibition of iNOS expression [3]: partial inhibitory effect; also recorded: potential iNOS inhibitory effect | melting point: 136 to 138 °C | IC50 ([4]; LPS-induced RAW 264.7 macrophages): 4.75 ± 0.25 µM | inhibition at 1 µM ([4]; Mus musculus): 16.2 ± 0.79% | inhibition at 5 µM ([4]; Mus musculus): > 50% | inhibition at 10 µM ([4]; Mus musculus): 76.9 ± 1.34% | IC50 [4, 6]: 4.72 µM

COc1cccc(-c2nn(-c3ccccc3)cc2-c2ccnc(NCCNS(=O)(=O)c3ccc(F)cc3)c2)c1 [Compound 1d, 4-Fluoro-N-(2-((4-(3-(3-methoxyphenyl)-1-phenyl-1H-pyrazol-4-yl)pyridin-2-yl)amino)ethyl)benzenesulfonamide]
Inhibition of iNOS enzyme activity (iNOS): slightly inhibited iNOS enzyme activity in a dose-dependent manner | IC50 [1]: 169.2 ± 1.64 µM | inhibition at 1 µM ([2]; Mus musculus): 19.79 ± 0.14% | inhibition at 5 µM ([2]; Mus musculus): 29.4 ± 0.77% | inhibition at 10 µM ([2]; Mus musculus): 61.3 ± 1.33% | IC50 [2, 5]: 8.2 µM | IC50 ([2]; nitric oxide production): 8.23 ± 0.32 µM | Inhibition of iNOS expression [3]: partial inhibitory effect; also recorded: potential iNOS inhibitory effect | melting point: 155 to 156 °C | inhibition at 1 µM ([4]; Mus musculus): 10.3 ± 0.81% | inhibition at 5 µM ([4]; Mus musculus): 49.6 ± 1.25% | inhibition at 10 µM ([4]; Mus musculus): 85.8 ± 2.64% | IC50 [4, 6]: 5.06 ± 0.21 µM

COc1cccc(-c2nn(-c3ccccc3)cc2-c2ccnc(NCCNS(=O)(=O)c3ccc(C)cc3)c2)c1 [Compound 1f, N-(2-((4-(3-(3-Methoxyphenyl)-1-phenyl-1H-pyrazol-4-yl)pyridin-2-yl)amino)ethyl)-4-methyl benzenesulfonamide]
IC50 (RAW 264.7 macrophages): 291 ± 1.12 µM | Nitric Oxide % Inhibition ([2]; 1 µM): 16.29 ± 0.10% | Nitric Oxide % Inhibition ([2]; 5 µM): 26.54 ± 0.65% | Nitric Oxide % Inhibition ([2]; 10 µM): 53.09 ± 2.10% | IC50 ([2]; nitric oxide production): 9.42 ± 0.12 µM
